Source: patent US12187728B2 (Raze Therapeutics, Inc., priority 2015, dated 2025)

Biological target: T1, Human MTHFD2 (Homo sapiens, UniProt P13995)
T1 construct: residues 36-350 in Uniport ID P13995; His6 (N); made in house; host or cells: E. coli
T1 sequence (P13995 36-350): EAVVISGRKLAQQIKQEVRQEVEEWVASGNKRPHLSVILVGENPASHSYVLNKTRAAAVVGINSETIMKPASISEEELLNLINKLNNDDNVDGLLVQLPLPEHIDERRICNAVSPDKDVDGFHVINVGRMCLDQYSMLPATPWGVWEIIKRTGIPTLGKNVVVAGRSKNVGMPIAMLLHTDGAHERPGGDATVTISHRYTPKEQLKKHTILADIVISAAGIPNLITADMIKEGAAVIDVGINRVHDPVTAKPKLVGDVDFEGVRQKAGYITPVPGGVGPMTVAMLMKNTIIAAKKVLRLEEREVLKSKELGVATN
Assay: MTHFD2 Activity Assay (dehydrogenase activity, diaphorase/resazurin coupled fluorescence)
Assay type: biochemical
Details: inhibitory activity (IC50 and/or binding constant); 0.2 nM MTHFD2, 11 concentrations
In short: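 His6-tagged MTHFD2 (res. 36-350), E. coli-expressed, at 0.2 nM preincubated with compound 15 min in Hepes pH 8.0/MgCl2/KH2PO4 buffer; 70 μM CH2-THF, 1 mM NAD+ added with resazurin/diaphorase, 30 min, EDTA stop. Resorufin fluorescence (ex 525/em 598); IC50 from 11-point 4-parameter fit.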

Compound	IC50 [nM]
Cc1ccc2[nH]c(Cn3c(=O)c4c(ncn4C)n(C)c3=O)cc2c1 [Example 236, 3,7-dimethyl-1-((5-methyl-1H-indol-2-yl)methyl)-1H-purine-2,6(3H,7H)-dione]	1000 to 5000
Cn1c(Cn2c(=O)c3c(nc(N)n3C)n(C)c2=O)cc2cc(Cl)ccc21 [Example 237, 8-amino-1-((5-chloro-1-methyl-1H-indol-2-yl)methyl)-3,7-dimethyl-1H-purine-2,6(3H,7H)-dione]	1000 to 5000
COc1ccc2c(c1)cc(Cn1c(=O)c3c(ncn3C)n(C)c1=O)n2C [Example 238, 1-((5-methoxy-1-methyl-1H-indol-2-yl)methyl)-3,7-dimethyl-1H-purine-2,6(3H,7H)-dione]	> 10000
COc1ccc2[nH]c(Cn3c(=O)c4c(ncn4C)n(C)c3=O)cc2c1 [Example 239, 1-((5-methoxy-1H-indol-2-yl)methyl)-3,7-dimethyl-1H-purine-2,6(3H,7H)-dione]	1000 to 5000
Cn1cnc2c1c(=O)n(Cc1cc3cc(Cl)ccc3[nH]1)c(=O)n2C [Example 240, 1-((5-chloro-1H-indol-2-yl)methyl)-3,7-dimethyl-1H-purine-2,6(3H,7H)-dione]	1000 to 5000
Cn1c(N)nc2c1c(=O)n(Cc1cc3cc(Cl)ccc3[nH]1)c(=O)n2C [Example 241, 8-amino-1-((5-chloro-1H-indol-2-yl)methyl)-3,7-dimethyl-1H-purine-2,6(3H,7H)-dione]	5000 to 10000
Cn1cnc2c1c(=O)n(Cc1cc3cc(Cl)ccc3n1C)c(=O)n2C [Example 242, 1-((5-chloro-1-methyl-1H-indol-2-yl)methyl)-3,7-dimethyl-1H-purine-2,6(3H,7H)-dione]	1000 to 5000
COc1ccc2[nH]c(Cn3c(=O)c4c(nc(N)n4C)n(C)c3=O)cc2c1 [Example 243, 8-amino-1-((5-methoxy-1H-indol-2-yl)methyl)-3,7-dimethyl-1H-purine-2,6(3H,7H)-dione]	> 10000
Cn1c(C(N)=O)nc2c1c(=O)n(Cc1ccc(Cl)c(Cl)c1)c(=O)n2C [Example 244, 1-(3,4-dichlorobenzyl)-3,7-dimethyl-2,6-dioxo-2,3,6,7-tetrahydro-1H-purine-8-carboxamide]	1000 to 5000
Cn1c(NC2COC2)nc2c1c(=O)n(Cc1ccc(Cl)c(Cl)c1)c(=O)n2C [Example 245, 1-(3,4-dichlorobenzyl)-3,7-dimethyl-8-(oxetan-3-ylamino)-1H-purine-2,6(3H,7H)-dione]	10 to 1000
Cn1c(=O)n(Cc2ccc(Cl)c(Cl)c2)c(=O)c2c1ncn2CC(N)=O [Example 246, 2-(1-(3,4-dichlorobenzyl)-3-methyl-2,6-dioxo-2,3-dihydro-1H-purin-7(6H)-yl)acetamide]	> 10000
Cn1c(=O)n(Cc2ccc(Cl)c(Cl)c2)c(=O)c2c1ncn2CCO [Example 248, 1-(3,4-dichlorobenzyl)-7-(2-hydroxyethyl)-3-methyl-1H-purine-2,6(3H,7H)-dione]	5000 to 10000
COc1cc(Cn2c(=O)c3c(ncn3C)n(C)c2=O)ccc1Cl [Example 249, 1-(4-chloro-3-methoxybenzyl)-3,7-dimethyl-1H-purine-2,6(3H,7H)-dione]	> 10000
CCn1c(=O)n(Cc2ccc(Cl)c(Cl)c2)c(=O)c2c1ncn2C [Example 250, 1-(3,4-dichlorobenzyl)-3-ethyl-7-methyl-1H-purine-2,6(3H,7H)-dione]	5000 to 10000
Cn1c(=O)n(Cc2ccc(Cl)c(Cl)c2)c(=O)c2[nH]cnc21 [Example 251, 1-(3,4-dichlorobenzyl)-3-methyl-1H-purine-2,6(3H,7H)-dione]	> 10000
COCc1cc(Cn2c(=O)c3c(ncn3C)n(C)c2=O)ccc1Cl [Example 252, 1-(4-chloro-3-(methoxymethyl)benzyl)-3,7-dimethyl-1H-purine-2,6(3H,7H)-dione]	> 10000
Cn1cnc2c(=O)n(Cc3ccc(Cl)c(Cl)c3)c(=O)n(C)c21 [Example 253]	> 10000
Cn1c(NC2CCC(CO)C2)nc2c1c(=O)n(Cc1ccc(Cl)c(Cl)c1)c(=O)n2C (stereo not shown) [Example 255, 1-(3,4-dichlorobenzyl)-8-(3-(hydroxymethyl)cyclopentylamino)-3,7-dimethyl-1H-purine-2,6(3H,7H)-dione]	10 to 1000
Cn1cnc2c1c(=O)n(Cc1ccc(Cl)c(C#N)c1)c(=O)n2C [Example 256, 2-chloro-5-((3,7-dimethyl-2,6-dioxo-2,3,6,7-tetrahydro-1H-purin-1-yl)methyl)benzonitrile]	1000 to 5000

Compound	IC50 [nM]
Cn1cnc2c1c(=O)n(Cc1cc3cc(C#N)ccc3[nH]1)c(=O)n2C [Example 257, 2-((3,7-dimethyl-2,6-dioxo-2,3,6,7-tetrahydro-1H-purin-1-yl)methyl)-1H-indole-5-carbonitrile]	1000 to 5000
CCOC(=O)[C@H]1C[C@@H](Nc2nc3c(c(=O)n(Cc4ccc(Cl)c(Cl)c4)c(=O)n3C)n2C)C1 [Example 258, (±)-(cis)-ethyl 3-(1-(3,4-dichlorobenzyl)-3,7-dimethyl-2,6-dioxo-2,3,6,7-tetrahydro-1H-purin-8-ylamino)cyclobutanecarboxylate]	10 to 1000
Cn1c(N[C@H]2C[C@@H](C(=O)O)C2)nc2c1c(=O)n(Cc1ccc(Cl)c(Cl)c1)c(=O)n2C [Example 259, (±)-(cis)-3-(1-(3,4-dichlorobenzyl)-3,7-dimethyl-2,6-dioxo-2,3,6,7-tetrahydro-1H-purin-8-ylamino)cyclobutanecarboxylic acid]	10 to 1000
Cn1c(NC2CCCC(C(=O)O)C2)nc2c1c(=O)n(Cc1ccc3cc[nH]c3c1)c(=O)n2C (stereo not shown) [Example 260, 3-(1-((1H-indol-6-yl)methyl)-3,7-dimethyl-2,6-dioxo-2,3,6,7-tetrahydro-1H-purin-8-ylamino)cyclohexanecarboxylic acid]	10 to 1000
Cn1c(N[C@H]2C[C@@H](CO)C2)nc2c1c(=O)n(Cc1ccc(Cl)c(Cl)c1)c(=O)n2C [Example 261, (±)-1-(3,4-dichlorobenzyl)-8-((cis)-3-(hydroxymethyl)cyclobutylamino)-3,7-dimethyl-1H-purine-2,6(3H,7H)-dione]	10 to 1000
Cn1c(N[C@@H]2CC[C@@H](O)C2)nc2c(=O)n(Cc3ccc(Cl)c(Cl)c3)c(=O)n(C)c21 [Example 262, 1-(3,4-dichlorobenzyl)-8-((1R,3R)-3-hydroxycyclopentylamino)-3,9-dimethyl-1H-purine-2,6(3H,9H)-dione]	> 10000
Cn1cnc2c1c(=O)n(Cc1ccc3cc[nH]c3c1)c(=O)n2C [Example 263, 1-((1H-indol-6-yl)methyl)-3,7-dimethyl-1H-purine-2,6(3H,7H)-dione]	5000 to 10000
Cn1c(N[C@H]2CC[C@@H](C(=O)O)CC2)nc2c1c(=O)n(Cc1ccc(Cl)c(Cl)c1)c(=O)n2C [Example 264, (±)-(cis)-4-((1-(3,4-dichlorobenzyl)-3,7-dimethyl-2,6-dioxo-2,3,6,7-tetrahydro-1H-purin-8-yl)amino)cyclohexanecarboxylic acid]	10 to 1000
CC(O)C1CCC(Nc2nc3c(c(=O)n(Cc4ccc(Cl)c(Cl)c4)c(=O)n3C)n2C)C1 (stereo not shown) [Example 265, 1-(3,4-dichlorobenzyl)-8-(3-(1-hydroxyethyl)cyclopentylamino)-3,7-dimethyl-1H-purine-2,6(3H,7H)-dione]	10 to 1000
Cn1c(N[C@H]2C[C@H](C(=O)O)C2)nc2c1c(=O)n(Cc1ccc(Cl)c(Cl)c1)c(=O)n2C [Example 266]	10 to 1000
COCC1CCC(Nc2nc3c(c(=O)n(Cc4ccc(Cl)c(Cl)c4)c(=O)n3C)n2C)C1 (stereo not shown) [Example 267, 1-(3,4-dichlorobenzyl)-8-(3-(methoxymethyl)cyclopentylamino)-3,7-dimethyl-1H-purine-2,6(3H,7H)-dione]	1000 to 5000
Cn1c(N[C@H]2C[C@H](CO)C2)nc2c1c(=O)n(Cc1ccc(Cl)c(Cl)c1)c(=O)n2C [Example 268]	10 to 1000
Cn1c(Nc2ccc(C(=O)O)cc2)nc2c1c(=O)n(Cc1ccc(Cl)c(Cl)c1)c(=O)n2C [Example 269, 4-[[1-[(3,4-dichlorophenyl)methyl]-3,7-dimethyl-2,6-dioxo-purin-8-yl]amino]benzoic acid]	10 to 1000
Cn1c(C(O)C2CCC(C(=O)O)CC2)nc2c1c(=O)n(Cc1ccc(Cl)c(Cl)c1)c(=O)n2C (stereo not shown) [Example 270, 4-((1-(3,4-dichlorobenzyl)-3,7-dimethyl-2,6-dioxo-2,3,6,7-tetrahydro-1H-purin-8-yl)(hydroxy)methyl)cyclohexanecarboxylic acid]	1000 to 5000
Cn1c(NC2CC2)nc2c1c(=O)n(Cc1ccc(Cl)c(Cl)c1)c(=O)n2C [Example 271, 8-(cyclopropylamino)-1-[(3,4-dichlorophenyl)methyl]-3,7-dimethyl-purine-2,6-dione]	10 to 1000
Cn1c(N[C@H]2CC[C@H](C(=O)O)CC2)nc2c1c(=O)n(Cc1ccc(Cl)c(Cl)c1)c(=O)n2C [Example 272, (±)-trans-4-[[1-[(3,4-dichlorophenyl)methyl]-3,7-dimethyl-2,6-dioxo-purin-8-yl]amino]cyclohexanecarboxylic acid]	10 to 1000
COCCNc1nc2c(c(=O)n(Cc3ccc(Cl)c(Cl)c3)c(=O)n2C)n1C [Example 273, 1-[(3,4-dichlorophenyl)methyl]-8-(2-methoxyethylamino)-3,7-dimethyl-purine-2,6-dione]	1000 to 5000
CC(=O)Nc1nc2c(c(=O)n(Cc3ccc(Cl)c(Cl)c3)c(=O)n2C)n1C [Example 274, N-[1-[(3,4-dichlorophenyl)methyl]-3,7-dimethyl-2,6-dioxo-purin-8-yl]acetamide]	1000 to 5000
